From patent US10787452B2 (Vertex Pharmaceuticals Incorporated, priority 2012, dated 2020)

system: HCT116 colorectal cancer cells; test: Cisplatin sensitization assay (96 h cell viability MTS); format: cell-based; conditions: 96 h MTS, compound plus Cisplatin;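 also: compound concentration needed to lower the Cisplatin-alone IC50 by a set fold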
Outline: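 Viability is measured with MTS reagent, added after 96 h and developed for 1 h at 37° C. Beforehand, cells receive compound and cisplatin simultaneously in a concentration matrix of 2-fold serial dilutions starting at 10 μM final.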

Row | Compound | Cisplatin Sensitization Assay
1 | Nc1nn2cc(F)cnc2c1C(=O)Nc1cnccc1N1CCCC2(COC2)C1 [I-N-253, N-(4-(2-oxa-6-azaspiro[3.5]nonan-6-yl)pyridin-3-yl)-2-amino-6-fluoropyrazolo[1,5-a]pyrimidine-3-carboxamide] | +++ (Compounds with a Cisplatin sensitization value of <0.02 μM are marked with “+++.”)
2 | Nc1nn2cc(F)cnc2c1C(=O)Nc1cnccc1N1CCC2(CCNC2)CC1 [I-N-255, N-(4-(2,8-diazaspiro[4.5]decan-8-yl)pyridin-3-yl)-2-amino-6-fluoropyrazolo[1,5-a]pyrimidine-3-carboxamide] | ++ (Compounds with a Cisplatin sensitization value >0.02 μM but <0.2 μM are marked with “++.”)
3 | Cc1nnc(N2CCN(c3ccncc3NC(=O)c3c(N)nn4cc(F)cnc34)CC2)o1 [I-N-256, 2-amino-6-fluoro-N-(4-(4-(5-methyl-1,3,4-oxadiazol-2-yl)piperazin-1-yl)pyridin-3-yl)pyrazolo[1,5-a]pyrimidine-3-carboxamide] | ++ (Compounds with a Cisplatin sensitization value >0.02 μM but <0.2 μM are marked with “++.”)
4 | CC(=O)N1CCC2(CCN(c3ccncc3NC(=O)c3c(N)nn4cc(F)cnc34)CC2)C1 [I-N-257, N-(4-(2-acetyl-2,8-diazaspiro[4.5]decan-8-yl)pyridin-3-yl)-2-amino-6-fluoropyrazolo[1,5-a]pyrimidine-3-carboxamide] | +++ (Compounds with a Cisplatin sensitization value of <0.02 μM are marked with “+++.”)
5 | Nc1nn2cc(F)cnc2c1C(=O)Nc1cnccc1N1CCN2C(=O)CC[C@@H]2C1 [I-N-258, (R)-2-amino-6-fluoro-N-(4-(6-oxohexahydropyrrolo[1,2-a]pyrazin-2(1H)-yl)pyridin-3-yl)pyrazolo[1,5-a]pyrimidine-3-carboxamide] | ++ (Compounds with a Cisplatin sensitization value >0.02 μM but <0.2 μM are marked with “++.”)
6 | Cn1ccc2cncc(NC(=O)c3c(N)nn4cc(F)cnc34)c21 [I-N-259, 2-amino-6-fluoro-N-(1-methyl-1H-pyrrolo[3,2-c]pyridin-7-yl)pyrazolo[1,5-a]pyrimidine-3-carboxamide] | + (Compounds with a Cisplatin sensitization value >0.2 μM but <5 μM are marked with “+.”)
7 | Cc1nonc1N1CCN(c2ccncc2NC(=O)c2c(N)nn3cc(F)cnc23)CC1 [I-N-260, 2-amino-6-fluoro-N-(4-(4-(4-methyl-1,2,5-oxadiazol-3-yl)piperazin-1-yl)pyridin-3-yl)pyrazolo[1,5-a]pyrimidine-3-carboxamide] | +++ (Compounds with a Cisplatin sensitization value of <0.02 μM are marked with “+++.”)
8 | COC(=O)N1CCN(c2c(F)cncc2NC(=O)c2c(N)nn3cc(F)cnc23)CC1 [I-N-261, methyl-4-(3-(2-amino-6-fluoropyrazolo[1,5-a]pyrimidine-3-carboxamido)-5-fluoropyridin-4-yl)piperazine-1-carboxylate] | +++ (Compounds with a Cisplatin sensitization value of <0.02 μM are marked with “+++.”)
9 | CC(=O)N1CCCC12CCN(c1ccncc1NC(=O)c1c(N)nn3cc(F)cnc13)CC2 [I-N-262, N-(4-(1-acetyl-1,8-diazaspiro[4.5]decan-8-yl)pyridin-3-yl)-2-amino-6-fluoropyrazolo[1,5-a]pyrimidine-3-carboxamide] | +++ (Compounds with a Cisplatin sensitization value of <0.02 μM are marked with “+++.”)
10 | Cc1nncn1-c1ccncc1NC(=O)c1c(N)nn2cc(F)cnc12 [I-N-263, 2-amino-6-fluoro-N-(4-(3-methyl-4H-1,2,4-triazol-4-yl)pyridin-3-yl)pyrazolo[1,5-a]pyrimidine-3-carboxamide] | + (Compounds with a Cisplatin sensitization value >0.2 μM but <5 μM are marked with “+.”)
11 | Nc1nn2cc(F)cnc2c1C(=O)Nc1cnccc1N1CCCCCC1 [I-N-264, 2-amino-N-(4-(azepan-1-yl)pyridin-3-yl)-6-fluoropyrazolo[1,5-a]pyrimidine-3-carboxamide] | + (Compounds with a Cisplatin sensitization value >0.2 μM but <5 μM are marked with “+.”)
12 | Cc1nnc(C2CCN(c3ccncc3NC(=O)c3c(N)nn4cc(F)cnc34)CC2)o1 [I-N-265, 2-amino-6-fluoro-N-(4-(4-(5-methyl-1,3,4-oxadiazol-2-yl)piperidin-1-yl)pyridin-3-yl)pyrazolo[1,5-a]pyrimidine-3-carboxamide] | ++ (Compounds with a Cisplatin sensitization value >0.02 μM but <0.2 μM are marked with “++.”)
13 | COC1CCN(c2ccncc2NC(=O)c2c(N)nn3cc(F)cnc23)CC1 [I-N-266, 2-amino-6-fluoro-N-(4-(4-methoxypiperidin-1-yl)pyridin-3-yl)pyrazolo[1,5-a]pyrimidine-3-carboxamide] | +++ (Compounds with a Cisplatin sensitization value of <0.02 μM are marked with “+++.”)
14 | CN(C)CC1CCN(c2ccncc2NC(=O)c2c(N)nn3cc(F)cnc23)CC1 [I-N-267, 2-amino-N-(4-(4-((dimethylamino)methyl)piperidin-1-yl)pyridin-3-yl)-6-fluoropyrazolo[1,5-a]pyrimidine-3-carboxamide] | +++ (Compounds with a Cisplatin sensitization value of <0.02 μM are marked with “+++.”)
15 | Nc1nn2cc(F)cnc2c1C(=O)Nc1cnccc1N1CCC(c2nnco2)CC1 [I-N-268, N-(4-(4-(1,3,4-oxadiazol-2-yl)piperidin-1-yl)pyridin-3-yl)-2-amino-6-fluoropyrazolo[1,5-a]pyrimidine-3-carboxamide] | +++ (Compounds with a Cisplatin sensitization value of <0.02 μM are marked with “+++.”)
16 | Cc1ncn(-c2ccncc2NC(=O)c2c(N)nn3cc(F)cnc23)c1C [I-N-269, 2-amino-N-(4-(4,5-dimethyl-1H-imidazol-1-yl)pyridin-3-yl)-6-fluoropyrazolo[1,5-a]pyrimidine-3-carboxamide] | ++ (Compounds with a Cisplatin sensitization value >0.02 μM but <0.2 μM are marked with “++.”)
17 | Nc1nn2cc(F)cnc2c1C(=O)Nc1cncc(F)c1N1CCCCC1 [I-N-270, 2-amino-6-fluoro-N-(5-fluoro-4-(piperidin-1-yl)pyridin-3-yl)pyrazolo[1,5-a]pyrimidine-3-carboxamide] | +++ (Compounds with a Cisplatin sensitization value of <0.02 μM are marked with “+++.”)
18 | Nc1nn2cc(F)cnc2c1C(=O)Nc1cnccc1N1CCC(S(=O)(=O)N2CCC2)CC1 [I-N-271, 2-amino-N-(4-(4-(azetidin-1-ylsulfonyl)piperidin-1-yl)pyridin-3-yl)-6-fluoropyrazolo[1,5-a]pyrimidine-3-carboxamide] | +++ (Compounds with a Cisplatin sensitization value of <0.02 μM are marked with “+++.”)
19 | CN1CCOC2(CCN(c3c(F)cncc3NC(=O)c3c(N)nn4cc(F)cnc34)CC2)C1 [I-N-272, 2-amino-6-fluoro-N-(5-fluoro-4-(4-methyl-1-oxa-4,9-diazaspiro[5.5]undecan-9-yl)pyridin-3-yl)pyrazolo[1,5-a]pyrimidine-3-carboxamide] | +++ (Compounds with a Cisplatin sensitization value of <0.02 μM are marked with “+++.”)
20 | Nc1nn2cc(F)cnc2c1C(=O)Nc1cncc(F)c1N1CCC(S(=O)(=O)N2CCN3CCC2CC3)CC1 [I-N-273, N-(4-(4-(1,4-diazabicyclo[3.2.2]nonan-4-ylsulfonyl)piperidin-1-yl)-5-fluoropyridin-3-yl)-2-amino-6-fluoropyrazolo[1,5-a]pyrimidine-3-carboxamide] | +++ (Compounds with a Cisplatin sensitization value of <0.02 μM are marked with “+++.”)
21 | Nc1nn2cc(F)cnc2c1C(=O)Nc1cncc(F)c1N1CCN(C(=O)C2CCOC2)CC1 (centres unmarked) [I-N-274, 2-amino-6-fluoro-N-(5-fluoro-4-(4-(tetrahydrofuran-3-carbonyl)piperazin-1-yl)pyridin-3-yl)pyrazolo[1,5-a]pyrimidine-3-carboxamide] | +++ (Compounds with a Cisplatin sensitization value of <0.02 μM are marked with “+++.”)
22 | CC(=O)N1CCN(c2c(F)cncc2NC(=O)c2c(N)nn3cc(F)cnc23)CC1 [I-N-275, N-(4-(4-acetylpiperazin-1-yl)-5-fluoropyridin-3-yl)-2-amino-6-fluoropyrazolo[1,5-a]pyrimidine-3-carboxamide] | +++ (Compounds with a Cisplatin sensitization value of <0.02 μM are marked with “+++.”)
23 | Nc1nn2cc(F)cnc2c1C(=O)Nc1cncc(F)c1N1CCN(C(=O)C2CC2)CC1 [I-N-276, 2-amino-N-(4-(4-(cyclopropanecarbonyl)piperazin-1-yl)-5-fluoropyridin-3-yl)-6-fluoropyrazolo[1,5-a]pyrimidine-3-carboxamide] | +++ (Compounds with a Cisplatin sensitization value of <0.02 μM are marked with “+++.”)
24 | Nc1nn2cc(F)cnc2c1C(=O)Nc1cncc(F)c1N1CCN(C(=O)C2COC2)CC1 [I-N-278, 2-amino-6-fluoro-N-(5-fluoro-4-(4-(oxetane-3-carbonyl)piperazin-1-yl)pyridin-3-yl)pyrazolo[1,5-a]pyrimidine-3-carboxamide] | +++ (Compounds with a Cisplatin sensitization value of <0.02 μM are marked with “+++.”)
25 | Nc1nn2cc(F)cnc2c1C(=O)Nc1cncc(F)c1N1CCN2C(=O)CCC[C@H]2C1 [I-N-279, (S)-2-amino-6-fluoro-N-(5-fluoro-4-(6-oxohexahydro-1H-pyrido[1,2-a]pyrazin-2(6H)-yl)pyridin-3-yl)pyrazolo[1,5-a]pyrimidine-3-carboxamide] | +++ (Compounds with a Cisplatin sensitization value of <0.02 μM are marked with “+++.”)
26 | Nc1nn2cc(F)cnc2c1C(=O)Nc1cncc(Cl)c1N1CCCC1 [I-N-281, 2-amino-N-(5-chloro-4-(pyrrolidin-1-yl)pyridin-3-yl)-6-fluoropyrazolo[1,5-a]pyrimidine-3-carboxamide] | +++ (Compounds with a Cisplatin sensitization value of <0.02 μM are marked with “+++.”)
